Literature values, collected in patent US20070037797A1, “Method of reducing the risk of adverse cardiovascular (CV) events associated with the administration of pharmaceutical agents which favor CV events” (priority 2005, published 2007).
Read-outs that look alike come from different tables or passages of the source. Each block holds one molecule with its values, some of them ahead of it.

How the values were obtained:
[1] = use at high frequency or dose
[2] = in vivo
[3] = individuals with essential hypertension
[4] = FDA determination
[5] = high-risk patients with diabetes mellitus, compared to placebo
[6] = Losartan 50 mg vs. captopril 50 mg three times daily, patients with heart failure
[7] = losartan vs. captopril
[8] = 25 mg/day of rofecoxib versus placebo
[9] = versus the non-selective NSAID naproxen
[10] = 10 mg dose
[11] = not given; remark: listed apart in the source
[12] = in vivo; remark: listed apart in the source

SMILES: CC(=O)Nc1ccc(O)cc1 [acetaminophen]
risk of adverse CV events [1]: significant increase

risk of stroke [2]: increases the risk of stroke
SMILES: O=C(c1ccc(OCCN2CCCCC2)cc1)c1c(-c2ccc(O)cc2)sc2cc(O)ccc12 [raloxifene]

endothelial dysfunction [3]: worsening
SMILES: CCC(=O)NS(=O)(=O)c1ccc(-c2c(-c3ccccc3)noc2C)cc1 [parecoxib]

SMILES: Cc1onc(-c2ccccc2)c1-c1ccc(S(N)(=O)=O)cc1 [valdecoxib]
risk of adverse CV events compared to placebo [4]: increased risk of adverse CV events

SMILES: CCCCC(=O)N(Cc1ccc(-c2ccccc2-c2nnn[nH]2)cc1)[C@H](C(=O)O)C(C)C [valsartan]
survival and rates of non-fatal CV events (patients with myocardial infarction): improved survival and reduced the rates of non-fatal CV events
improving survival and reducing cardiovascular morbidity compared with captopril (target dose of 160 mg twice daily): as effective as the ACE inhibitor captopril

SMILES: CCOC(=O)[C@H](CCc1ccccc1)N[C@@H](C)C(=O)N1[C@H](C(=O)O)C[C@@H]2CCC[C@@H]21 [ramipril]
relative risk reduction, combined primary outcome of myocardial infarction, stroke, and cardiovascular death [5]: 25%

SMILES: CCCCc1nc(Cl)c(CO)n1Cc1ccc(-c2ccccc2-c2nn[nH]n2)cc1 [Losartan]
mortality [6]: significant reduction in mortality
clinical endpoints [7]: no significant difference

SMILES: CS(=O)(=O)c1ccc(C2=C(c3ccccc3)C(=O)OC2)cc1 [rofecoxib]
increase in the incidence of serious thrombotic adverse events [8]: approximately two
increase in the incidence of myocardial infarction [9]: approximately two
risk of adverse CV events compared to placebo [4]: increased risk of adverse CV events
selectivity for COX-2 compared with celecoxib (COX-2 relative to COX-1): 10 times

SMILES: CC(C)c1c(C(=O)Nc2ccccc2)c(-c2ccccc2)c(-c2ccc(F)cc2)n1CC[C@@H](O)C[C@@H](O)CC(=O)O [atorvastatin]
reduction in LDL [10]: 39%

SMILES: Cc1ccc(-c2cc(C(F)(F)F)nn2-c2ccc(S(N)(=O)=O)cc2)cc1 [celecoxib]
risk of adverse CV events compared to placebo [4]: increased risk of adverse CV events
hazard for the composite endpoint of death from CV causes ([11]; 200 mg twice daily compared to placebo): 2.5
hazard for the composite endpoint of death from CV causes ([11]; 400 mg twice daily compared to placebo): 3.4
increase in adverse CV events ([11]; versus placebo after a mean duration of 33 months): 2-3 fold

SMILES: COc1ccc(OC(=O)N(CC(=O)O)Cc2ccc(OCCc3nc(-c4ccccc4)oc3C)cc2)cc1 [muraglitazar]
risk of myocardial infarct and stroke [12]: increases the risk of myocardial infarct and stroke
